One data set has as its target T1, human recombinant HPA (Homo sapiens, UniProt Q9Y251).
T1 sequence (Q9Y251 158-543 limits assumed): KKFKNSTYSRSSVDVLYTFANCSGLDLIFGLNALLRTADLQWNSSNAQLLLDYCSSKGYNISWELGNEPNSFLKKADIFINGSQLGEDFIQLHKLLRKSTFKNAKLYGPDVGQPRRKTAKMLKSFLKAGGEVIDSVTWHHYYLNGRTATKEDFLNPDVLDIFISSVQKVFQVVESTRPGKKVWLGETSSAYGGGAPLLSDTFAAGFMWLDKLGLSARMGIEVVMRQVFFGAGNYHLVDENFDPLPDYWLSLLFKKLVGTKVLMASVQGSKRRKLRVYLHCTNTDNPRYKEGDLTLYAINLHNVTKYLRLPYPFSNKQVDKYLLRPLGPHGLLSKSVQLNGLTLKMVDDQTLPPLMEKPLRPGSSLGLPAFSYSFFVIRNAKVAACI
T1 sequence (Q9Y251 36-109 limits assumed): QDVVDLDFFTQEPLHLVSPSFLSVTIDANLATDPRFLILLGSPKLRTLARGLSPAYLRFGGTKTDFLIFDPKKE
Put plainly: Detection of HPA activity inhibition (Heparan Degrading Enzyme Assay Kit). It is filed as biochemical. The note with it: 31 mIU human recombinant HPA, 37°C, 45 minutes; read-out: IC50, inhibitory effect on heparanase activity. As for the experimental part:
The final reaction volume of each vial was 100 μl. […] Then, 100 μl of terminating liquid was added into each well. OD values were examined at a wavelength of 450 nm. Each concentration was tested in three separate wells. GraphPad Prism 5 (GraphPad Prism Software Inc., San Diego) was used to calculate the inhibitory IC50 values.

The next data set deals with HeLa cells. Put plainly: MTT assay, growth inhibition of HeLa cells. It is filed as cell-based, human. The note with it: Homo sapiens, HeLa; for inhibition at 1 µM / inhibition at 5 µM / inhibition at 15 µM / inhibition at 30 µM / inhibition at 60 µM / inhibition at 120 µM / inhibition at 180 µM / inhibition at 240 µM: 48 hs, mean ± s, read-out: Growth inhibition rate in HeLa cells; for IC50: 48 hours, MTT, read-out: IC50, growth inhibition of HeLa cells. As to the method: Cells were cultured in improved medium supplemented with 10% FBS and kept at 37°C in a […] humidified atmosphere containing 5% CO2. Logarithmic phase cells were used for the experiment and were treated with different concentrations of different medications for different amounts of time. […] Inhibitors were made into 10 mM stock solutions with DMSO, filtered, and kept at room temperature away from light. These inhibitor stock solutions were diluted to the required concentration (1, 5, 15, 30, 60, 120, 180, or 240 μM) before every experiment. The final doses of nedaplatin were […]. In order to determine whether an HPA inhibitor sensitized cells to nedaplatin, 10 μM of inhibitor number 16 (No. 16) was added into each experimental well with nedaplatin.
200 μl of single-cell suspension at a density of 5 × 10^4 cells/ml was seeded into 96-well plates. When cells were adherent, the medium was replaced with 200 μl of medium containing different concentrations of inhibitor or nedaplatin, and the cells were further incubated for 24 hours to 96 hours respectively. 20 μl MTT solution ([…] in phosphate buffered saline (PBS)) was added to each well 4 hours before the treatment ended. The cells were then incubated for another 4 hours, after which the supernatants were removed. The cells were totally solubilized in 150 μl DMSO. OD values were measured at the wavelength of 492 nm with a reference wavelength of 630 nm. Inhibition rate (IR) in the cells was calculated as follows: IR = ((OD2-OD0)-(OD1-OD0))/(OD2-OD0) × 100%, where OD0 was the OD value of blank wells, OD2 was the value of normal control wells, and OD1 was the value of experimental wells. Each condition was replicated in six separate wells.

The results in this text go back to publication PMC5094990, “Novel 1, 3-N, O-Spiroheterocyclic compounds inhibit heparanase activity and enhance nedaplatin-induced cytotoxicity in cervical cancer cells” (Oncotarget, 2016).

`Fc1cccc(F)c1C1NCC(c2ccccc2)C2(CCCCC2)O1` (stereo not shown) [No. 14] gave a melting point of 130.4 to 131.2 °C. Further, at human recombinant HPA, the IC50 amounted to 4.47 µM. Besides, in the data set with HeLa cells, the inhibition at 1 µM was found to be 2.92 ± 0.155%, the inhibition at 5 µM was found to be 4.05 ± 0.888%, the inhibition at 15 µM amounted to 9.57 ± 0.761% and the inhibition at 30 µM is 17.9 ± 1.2%. In addition, in the data set with HeLa cells, the inhibition at 60 µM came to 46.4 ± 1.22%, the inhibition at 120 µM is 78.58 ± 0.502%, the inhibition at 180 µM worked out at 96.98 ± 0.86% and the inhibition at 240 µM came out at 98.96 ± 0.517%. In the data set on HeLa cells, the concentration for half-maximal inhibition (IC50) was determined as 64.2 µM.
Consider `Fc1ccc(C2NCC(c3ccccc3)C3(CCCCC3)O2)cc1` (stereo not shown) [No. 12], for which, in the data set with HeLa cells, the inhibition at 1 µM was -5.15 ± 0.0626%, the inhibition at 5 µM is -1.54 ± 0.472%, the inhibition at 15 µM amounted to 5.39 ± 0.33% and the inhibition at 30 µM was found to be 8.76 ± 1.21%. In addition, in the data set on HeLa cells, the inhibition at 60 µM is 31.7 ± 1.21%, the inhibition at 120 µM is 55.5 ± 0.671%, the inhibition at 180 µM came to 89.01 ± 0.491% and the inhibition at 240 µM stood at 90.89 ± 0.416%. Also, the IC50 with HeLa cells stood at 96.6 µM.
With `Clc1ccc(C2NCC(c3ccccc3)C3(CCCCC3)O2)cc1` (stereo not shown) [No. 11], the melting point was in the range of 127.7 to 128.5 °C. Further, in the data set with HeLa cells, the inhibition at 1 µM is 1.22 ± 0.0789%, the inhibition at 5 µM came to 2.65 ± 0.0739%, the inhibition at 15 µM turned out to be 5.26 ± 0.294% and the inhibition at 30 µM was 13.6 ± 1.22%. For the same molecule, in the data set on HeLa cells, the inhibition at 60 µM was determined as 41.8 ± 1.19%, the inhibition at 120 µM worked out at 71.4 ± 1.15%, the inhibition at 180 µM was 97.18 ± 0.525% and the inhibition at 240 µM amounted to 98.02 ± 0.465%. Besides, the IC50 in the data set with HeLa cells was found to be 70.2 µM.
In turn, `COc1ccc(C2CNC(c3ccc(F)cc3F)OC23CCCCC3)cc1` (stereo not shown) [No. 22] showed a melting point of 128.7 to 129.6 °C. Further, in the data set on HeLa cells, the inhibition at 1 µM was -3.13 ± 0.705%, the inhibition at 5 µM is -0.339 ± 0.0726%, the inhibition at 15 µM stood at 4.27 ± 0.729% and the inhibition at 30 µM was found to be 22.1 ± 0.976%. For the same molecule, in the data set with HeLa cells, the inhibition at 60 µM turned out to be 36.13 ± 0.285%, the inhibition at 120 µM came to 66 ± 0.898%, the inhibition at 180 µM was 93.9 ± 1.67% and the inhibition at 240 µM came to 95.18 ± 0.39%. For the same molecule, the concentration for half-maximal inhibition (IC50) in the data set on HeLa cells came to 75.2 µM.
